Structures can show the parent of a compound that is named as a salt.
Biological target: Sigma non-opioid intracellular receptor 1 (Cavia porcellus) (UniProt Q60492)
Assay: The compound was evaluated for binding affinity against sigma receptor using [3H]DTG radioligand in guinea pig membranes

Sigma non-opioid intracellular receptor 1 (Cavia porcellus), sequence (Q60492 whole entry, looked up): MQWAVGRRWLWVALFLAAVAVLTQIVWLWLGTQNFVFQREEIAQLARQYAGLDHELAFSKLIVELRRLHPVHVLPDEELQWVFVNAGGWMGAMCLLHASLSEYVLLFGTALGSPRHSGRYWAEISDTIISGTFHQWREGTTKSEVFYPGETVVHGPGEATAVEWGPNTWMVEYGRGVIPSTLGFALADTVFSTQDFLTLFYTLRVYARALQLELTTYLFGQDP

SMILES	IC50
CC(=NC12CC3CC(CC(C3)C1)C2)NC12CC3CC(CC(C3)C1)C2 [N,N'-Di-adamantan-1-yl-acetamidine]	16 nM
CC(=Nc1ccccc1C)Nc1ccccc1C [N,N'-Di-o-tolyl-acetamidine; hydrochloride]	15 nM
CC(=NC12CC3CC(CC(C3)C1)C2)NC1CCCCC1 [N-Adamantan-1-yl-N'-cyclohexyl-acetamidine]	72 nM
CC(=Nc1ccc(Br)cc1C)Nc1ccc(Br)cc1C [N,N'-Bis-(4-bromo-2-methyl-phenyl)-acetamidine]	26 nM

Continued, values first:

IC50	SMILES
6 nM	CC(=Nc1ccccc1C)NC12CC3CC(CC(C3)C1)C2 [N-Adamantan-1-yl-N'-o-tolyl-acetamidine; hydrochloride]
9 nM	CC(=Nc1ccccc1C)NC1CC2CCC1C2 (configuration not stated) [N-Bicyclo[2.2.1]hept-2-yl-N'-o-tolyl-acetamidine]
9 nM	CC(=Nc1ccccc1C)NC1CCCCC1 [N-Cyclohexyl-N'-o-tolyl-acetamidine; hydrochloride]
